Data reported in US20040211730A1, “Methods and compounds for controlling the morphology and shrinkage of silica derived from polyol-modified silanes” (priority 2002, published 2004).
Read-outs that look alike come from different tables or passages of the source.

Target: T1, Dihydrofolate reductase (DHFR) (Escherichia coli, UniProt P0ABQ4)
T1 construct: gift of Professor Eric Brown (McMaster University)
Type: binding, E. coli
Conditions: for retention (elution) time: FIG. 19 Panel B, column with 50 pmol DHFR initial loading, compounds infused at 20 nM, fluorescein 100 nM; for elution time: first run
Procedure: A second aqueous solution of 50 mM HEPES at pH 7.5 was prepared containing 16% (w/v) PEO (MW=10 000) and 0.6% (v/v) APTES. This aqueous solution also contained ca. 20 μM of DHFR. […] The mixture underwent spinodal decomposition (phase separation) in about 2-3 min followed by silica polymerization (˜10 min) to generate a hydrated macroporous monolithic column containing entrapped protein. After loading the sol-gel mixture, the monolithic columns were aged for a minimum of 5 days at 4 C and then cut into 10 cm lengths before use. In some cases, the APTES present in the columns was replaced with a final concentration of either 0.03% polyallylamine (PAM, MW 17,000) or 0.3% dimethyldimethoxysilane (DMDMS) to examine the effects of surface derivatization on non-selective retention.
Syringe pumps (Harvard Instruments PhD 2000) were used to deliver solutions, and a flow-switching valve was used to toggle between the assay buffer and the solution containing the compound mixture. This solution was then pumped through the column to achieve equilibrium. Effluent was combined with suitable organic modifiers to assist in the generation of a stable electrospray and detectability of the sprayed components using a triple-quadrupole MS system (Sciex API 3000). This configuration allows for maximum flexibility in compound introduction. Full operation of FAC-MS methods requires frequent flow switching between two solutions connected to the head of the column. An Upchurch microinjection valve allows syringe contents to be exchanged during operation. […] All other connections between components were achieved using fused silica tubing.
Before the first run, the column was flushed with 0.05 M NH4OAc buffer (pH 6.6, 100 mM NaCl) for 30 min at different flow rates (from 1 to 5 μL.min^−1) to remove any glycerol and non-entrapped protein and then equilibrated with 2 mM NH4OAc for 30 min at different flow rates (from 1 to 5 μL.min^−1). All compounds tested were present in 2 mM NH4OAc and were delivered at a rate of 5 μL.min^−1 using the syringe pump. The makeup flow (used to assist in the generation of a stable electrospray) consisted of methanol containing 10% (v/v) NH4OAc buffer (2 mM) and was delivered at 5 μL.min^−1.
In each case, the data were fit to the following equation:^17 [formula]
where V0 is the void volume (μL), V is the retention volume (μL), [A] is the analyte concentration (μM), Kd is the binding constant of the ligand to the protein (μM) and Bt is the total picomoles of active protein in the column.

[1] = FIG. 21 Panel A, in 2 mM ammonium acetate
[2] = FIG. 21 Panel B, second column cut from the same capillary, same infusion

Row | SMILES | retention (elution) time [min] | elution time [1] [min] | elution time [2] [min]
1 | O=c1ccc2ccccc2o1 [coumarin] | 2 | 2.7 | 2.6
2 | Nc1nc2ncc(CNc3ccc(C(=O)N[C@@H](CCC(=O)O)C(=O)O)cc3)nc2c(=O)[nH]1 [folic acid] | 7 | 8.9 | 8.4
